# In patent US20210387966A1, “2-AMINO-N-HETEROARYL-NICOTINAMIDES AS NAV1.8 INHIBITORS” (Merck Sharp & Dohme Corp., priority 2018, published 2021):
# Biological target: T1, human Nav1.8 channels (Homo sapiens, UniProt Q9Y5Y9)
# T1 construct: expressed in transfected cells
# Experiment: Nav1.8 Qube automated patch-clamp assay
# Assay type: cell-based
# Conditions: human Nav1.8 stably expressed in HEK 293 cells; whole-cell voltage clamp, room temperature; resting or inactivated state not specified; read-out: IC50 values (nM) for Examples in the Nav1.8 Qube Assay
# How it was run: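 Whole-cell patch clamp at room temperature on HEK293 cells stably expressing human Nav1.8. A 1 Hz train of ten 20 ms pulses to 10 mV from −90 mV holding, with −67 mV repolarization, was applied; first- and tenth-pulse peak currents gave resting and inactivated-state IC50s by Hill fitting.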
# T1 sequence (Q9Y5Y9 whole entry): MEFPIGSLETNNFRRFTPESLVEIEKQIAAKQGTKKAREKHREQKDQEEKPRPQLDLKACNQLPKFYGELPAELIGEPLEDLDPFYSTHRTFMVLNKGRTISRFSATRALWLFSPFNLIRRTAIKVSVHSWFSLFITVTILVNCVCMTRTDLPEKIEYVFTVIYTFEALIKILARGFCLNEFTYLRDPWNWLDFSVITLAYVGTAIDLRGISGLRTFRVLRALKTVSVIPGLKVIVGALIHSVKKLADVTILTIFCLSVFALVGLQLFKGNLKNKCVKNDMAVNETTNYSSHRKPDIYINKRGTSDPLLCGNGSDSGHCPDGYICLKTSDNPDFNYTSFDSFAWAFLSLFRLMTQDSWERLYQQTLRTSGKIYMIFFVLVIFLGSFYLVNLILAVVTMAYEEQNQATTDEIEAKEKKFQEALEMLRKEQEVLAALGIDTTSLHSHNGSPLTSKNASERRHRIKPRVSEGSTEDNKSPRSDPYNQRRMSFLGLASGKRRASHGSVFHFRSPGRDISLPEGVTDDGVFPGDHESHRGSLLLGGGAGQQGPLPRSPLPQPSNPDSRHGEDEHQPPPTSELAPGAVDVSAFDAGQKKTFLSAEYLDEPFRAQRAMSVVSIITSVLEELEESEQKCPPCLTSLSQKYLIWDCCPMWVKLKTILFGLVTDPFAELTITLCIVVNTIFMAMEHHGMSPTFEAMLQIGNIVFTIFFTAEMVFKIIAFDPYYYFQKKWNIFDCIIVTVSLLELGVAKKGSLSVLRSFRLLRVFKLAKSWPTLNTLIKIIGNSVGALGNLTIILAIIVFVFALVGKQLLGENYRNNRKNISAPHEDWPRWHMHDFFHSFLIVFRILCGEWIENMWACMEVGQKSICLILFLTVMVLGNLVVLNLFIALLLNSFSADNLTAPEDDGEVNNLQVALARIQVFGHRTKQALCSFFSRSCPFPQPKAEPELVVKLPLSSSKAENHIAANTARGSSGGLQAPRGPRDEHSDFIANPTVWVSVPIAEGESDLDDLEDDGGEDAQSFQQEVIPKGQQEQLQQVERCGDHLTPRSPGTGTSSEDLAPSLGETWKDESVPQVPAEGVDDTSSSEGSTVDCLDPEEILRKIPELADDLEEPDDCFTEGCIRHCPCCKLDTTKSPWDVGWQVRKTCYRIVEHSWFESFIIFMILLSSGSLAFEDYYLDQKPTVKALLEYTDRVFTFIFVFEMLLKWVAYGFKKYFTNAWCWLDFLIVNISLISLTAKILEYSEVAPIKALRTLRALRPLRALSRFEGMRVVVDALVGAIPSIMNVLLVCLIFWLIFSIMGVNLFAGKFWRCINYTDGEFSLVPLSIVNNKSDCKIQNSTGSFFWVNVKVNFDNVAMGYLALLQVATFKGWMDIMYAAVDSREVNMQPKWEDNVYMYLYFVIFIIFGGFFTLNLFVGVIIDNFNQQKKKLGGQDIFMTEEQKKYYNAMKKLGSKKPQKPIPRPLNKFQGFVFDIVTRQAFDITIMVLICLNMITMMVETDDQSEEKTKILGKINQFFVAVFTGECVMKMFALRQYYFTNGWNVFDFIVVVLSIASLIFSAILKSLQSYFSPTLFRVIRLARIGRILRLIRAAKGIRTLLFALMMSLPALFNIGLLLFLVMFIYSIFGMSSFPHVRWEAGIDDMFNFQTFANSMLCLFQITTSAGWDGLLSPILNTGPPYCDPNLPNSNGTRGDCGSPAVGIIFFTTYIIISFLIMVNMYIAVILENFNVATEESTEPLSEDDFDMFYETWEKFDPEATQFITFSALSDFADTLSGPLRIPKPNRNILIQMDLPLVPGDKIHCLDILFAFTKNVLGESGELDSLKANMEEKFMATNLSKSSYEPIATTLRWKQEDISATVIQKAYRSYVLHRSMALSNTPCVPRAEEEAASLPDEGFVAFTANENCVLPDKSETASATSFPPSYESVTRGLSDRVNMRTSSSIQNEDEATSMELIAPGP
row,IC50,SMILES
1,24 nM,"Cc1cc(Cl)nc(N2CCC(F)(F)CC2)c1C(=O)Nc1ccnc(S(N)(=O)=O)c1 [Example 170, 6-chloro-2-(4,4-difluoropiperidin-1-yl)-4-methyl-N-(2-sulfamoylpyridin-4-yl)nicotinamide]"
2,89 nM,"CS(=O)(=O)c1cc(NC(=O)c2cc(C(F)(F)F)cnc2N2C[C@@H]3[C@H](C2)C(F)(F)C3(F)F)ccn1 [Example 151, N-(2-methylsulfonyl-4-pyridyl)-2-[(1R,5S)-6,6,7,7-tetrafluoro-3-azabicyclo[3.2.0]heptan-3-yl]-5-(trifluoro-methyl)pyridine-3-carboxamide]"
3,161 nM,"NS(=O)(=O)c1cncc(NC(=O)c2cc(C(F)(F)F)cnc2N2CCCCCC2)c1 [Example 145, 2-(azepan-1-yl)-N-(5-sulfamoyl-3-pyridyl)-5-(trifluoromethyl) pyridine-3-carboxamide]"
4,22 nM,"CC1CN(c2nc(C(F)(F)F)ccc2C(=O)Nc2ccnc(S(N)(=O)=O)c2)CCC1(F)F (single isomer, unassigned) [Example 162, (R or S)-2-(4,4-difluoro-3-methylpiperidin-1-yl)-N-(2-sulfamoylpyridin-4-yl)-6-(trifluoromethyl)nicotinamide]"
5,60 nM,"CC1CN(c2ncc(C(F)(F)F)cc2C(=O)Nc2ccnc(C#N)c2)CCC1(F)F (single isomer, unassigned) [Example 155, (R or S)-N-(2-cyanopyridin-4-yl)-2-(4,4-difluoro-3-methylpiperidin-1-yl)-5-(trifluoro-methyl)nicotinamide]"
6,5070 nM,"O=C(Nc1ccc2ncc(Br)n2c1)c1cc(C(F)(F)F)cnc1N1CCCCCC1 [Example 199, 2-(azepan-1-yl)-N-(3-bromoimidazo[1,2-a]pyridin-6-yl)-5-(trifluoromethyl)-pyridine-3-carboxamide]"
7,26 nM,"NC(=O)c1cc(NC(=O)c2cc(C(F)(F)F)cnc2N2CCCC(F)(F)CC2)ccn1 [Example 137, 4-(2-(4,4-difluoroazepan-1-yl)-5-(trifluoromethyl)nicotinamido)picolinamide]"
8,199 nM,"Cc1ncc(C(=O)Nc2ccnc(S(N)(=O)=O)c2)c(N2CCCC(F)(F)CC2)n1 [Example 173, 4-(4,4-difluoroazepan-1-yl)-2-methyl-N-(2-sulfamoylpyridin-4-yl)pyrimidine-5-carboxamide]"
9,347 nM,"Cc1nc(N2CCCC(F)(F)CC2)c(C(=O)N(C)c2ccnc(S(N)(=O)=O)c2)c(C)c1Cl [Example 214, 5-chloro-2-(4,4-difluoroazepan-1-yl)-N,4,6-trimethyl-N-(2-sulfamoylpyridin-4-yl)nicotinamide]"
10,1630 nM,"COc1ccnc(N2CCC(F)(F)CC2)c1C(=O)Nc1ccnc(S(N)(=O)=O)c1 [Example 159, 2-(4,4-difluoropiperidin-1-yl)-4-methoxy-N-(2-sulfamoylpyridin-4-yl)nicotinamide]"
11,1.9 nM,"Cc1nc(N2CCC3(CC2)CC3)c(C(=O)Nc2ccnc(S(N)(=O)=O)c2)c(C)c1Cl [Example 202, 5-chloro-4,6-dimethyl-2-(6-azaspiro[2.5]octan-6-yl)-N-(2-sulfamoylpyridin-4-yl)nicotinamide]"
12,141 nM,"COc1cc(NC(=O)c2c(N3CCCCCC3)nc(C)c(Cl)c2C)ccn1 [Example 187, 2-(azepan-1-yl)-5-chloro-N-(2-methoxy-4-pyridyl)-4,6-dimethyl-pyridine-3-carboxamide]"

# Second part, the compound before the results:
row,SMILES,IC50
1,"NS(=O)(=O)c1cc(NC(=O)c2cc(C(F)(F)F)cnc2N2CC3CC(F)(F)C3C2)ccn1 (single isomer, unassigned) [Example 65, 2-((1S,5R or 1R,5S)-6,6-difluoro-3-azabicyclo[3.2.0]heptan-3-yl)-N-(2-sulfamoylpyridin-4-yl)-5-(trifluoromethyl)nicotinamide]",94 nM
2,"Cc1sc(S(N)(=O)=O)cc1NC(=O)c1cc(C(F)(F)F)cnc1N1CCCCCC1 [Example 114, 2-(azepan-1-yl)-N-(2-methyl-5-sulfamoyl-thiophen-3-yl)-5-(trifluoromethyl)pyridine-3-carboxamide]",95 nM
3,"NS(=O)(=O)c1cc(NC(=O)c2cc(C(F)(F)F)cnc2N2CCC3OCCC32)ccn1 (stereo not shown) [Example 96, 2-(2,3,3,a,5,6,6a-hexahydrofuro[3,2-b]pyrrol-4-yl)-N-(2-sulfamoyl-4-pyridyl)-5-(trifluoromethyl)pyridine-3-carboxamide]",1620 nM
4,"NS(=O)(=O)c1cc(NC(=O)c2cc(C(F)(F)F)cnc2N2CCC(F)(F)CCC2=O)ccn1 [Example 28, 2-(5,5-Difluoro-2-oxoazepan-1-yl)-N-(2-sulfamoylpyridin-4-yl)-5-(trifluoromethyl)nicotinamide]",1300 nM
5,"Cc1ccc(C(=O)Nc2ccnc(S(N)(=O)=O)c2)c(N2CCCC(F)(F)C(F)C2)n1 (stereo not shown) [Example 40, 6-methyl-N-(2-sulfamoylpyridin-4-yl)-2-(3,4,4-trifluoroazepan-1-yl)nicotinamide]",4.1 nM
6,"C[C@H]1CCN(c2ncc(C(F)(F)F)cc2C(=O)Nc2ccnc(S(N)(=O)=O)c2)CCO1 [Example 108, 2-[(7S)-7-methyl-1,4-oxazepan-4-yl]-N-(2-sulfamoyl-4-pyridyl)-5-(trifluoromethyl)pyridine-3-carboxamide]",191 nM
7,"CC1CCCN(c2ncc(C(F)(F)F)cc2C(=O)Nc2ccnc(S(N)(=O)=O)c2)C1 (single isomer, unassigned) [Example 56, (S or R)-2-(3-methylpiperidin-1-yl)-N-(2-sulfamoylpyridin-4-yl)-5-(trifluoromethyl)nicotinamide]",9.1 nM
8,"NS(=O)(=O)c1cc(NC(=O)c2cc(C(F)(F)F)cnc2N2CCCC(Cl)(Cl)CC2)ccn1 [Example 51, 2-(4,4-Dichloroazepan-1-yl)-N-(2-sulfamoylpyridin-4-yl)-5-(trifluoromethyl)nicotinamide]",6.6 nM
9,"Cc1nc(N2CCCC(F)(F)CC2)c(C(=O)Nc2cnn(S(C)(=O)=O)c2)c(C)c1Cl [Example 32, 5-chloro-2-(4,4-difluoroazepan-1-yl)-4,6-dimethyl-N-[1-(methylsulfonyl)-1H-pyrazol-4-yl]pyridine-3-carboxamide]",4.3 nM
10,"CC1CN(c2ncc(C(F)(F)F)cc2C(=O)Nc2ccnc(S(N)(=O)=O)c2)CC(C)C1O [Example 78, 2-[(3S,4r,5R)-4-hydroxy-3,5-dimethyl-1-piperidyl]-N-(2-sulfamoyl-4-pyridyl)-5-(trifluoromethyl)pyridine-3-carboxamide]",5080 nM
11,"Cc1nc(N2CCC(F)(F)CC2)c(C(=O)Nc2ccnc(S(N)(=O)=O)c2)cc1C1CC1 [Example 14, 5-cyclopropyl-2-(4,4-difluoropiperidin-1-yl)-6-methyl-N-(2-sulfamoylpyridin-4-yl)nicotinamide]",45 nM
12,"NS(=O)(=O)c1cc(NC(=O)c2cc(C#CC3CC3)c(C(F)(F)F)nc2N2CCC(F)(F)CC2)ccn1 [Example 44, 5-(cyclopropylethynyl)-2-(4,4-difluoropiperidin-1-yl)-N-(2-sulfamoylpyridin-4-yl)-6-(trifluoromethyl)nicotinamide]",59 nM
13,"Cc1nc(N2CCOC(C(F)F)C2)c(C(=O)Nc2ccnc(S(N)(=O)=O)c2)cc1Cl (single isomer, unassigned) [Example 124, (S or R)-5-chloro-2-(2-(difluoromethyl)morpholino)-6-methyl-N-(2-sulfamoylpyridin-4-yl)nicotinamide]",50 nM
